These results are taken from ChEMBL document CHEMBL1201862, “PubChem BioAssay data set” (2004).

What is called GI50 is the concentration giving 50% growth inhibition.

SMILES strings stand for the structures.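 Briefly, cells in 96-well plates were exposed to five compound concentrations for 48 h, and endpoints were estimated by linear interpolation. GI50: concentration for 50% inhibition of growth.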 The source made the active and inactive calls. Rule as the data show it: active = GI50 up to about 1.1 µM and inactive = higher.

Test systems include HCT-15; SN12C; SF-268; KM12; Hs-578T; SK-OV-3; HCC 2998; MDA-MB-435; HL-60; IGROV-1; DMS-273; ACHN; EKVX; SNB-75; UACC-257; MDA-N; PC-3; K562; NCI/ADR-RES; A498.
Holding throughout (assay): DTP human tumour cell line panel, 48 h

With `O=C1CCCC2=C(N1)C(=O)C=CC2=O`, the GI50 is 42.2 µM in the assay with HCT-15; 29.2 µM (inactive) with SN12C; 46.2 µM (inactive) in the assay on SF-268; 25.6 µM (inactive) in the assay with KM12; 29 µM (inactive) with Hs-578T; > 100 µM (inactive) in the assay with SK-OV-3. Also, the GI50 is 60.8 µM (inactive) with HCC 2998; 18.6 µM (inactive) in the assay on MDA-MB-435; 8.61 µM (inactive) in the assay with HL-60; 43 µM (inactive) with IGROV-1; > 100 µM (inactive) with DMS-273; 40.6 µM (inactive) in the assay with ACHN. Further, the GI50 with EKVX was 34.4 µM (inactive); in the assay with SNB-75, 43.8 µM (inactive); with UACC-257, 45.2 µM (inactive); with MDA-N, 16.8 µM (inactive); with PC-3 it was 16.1 µM (inactive); in the assay on K562, 6.73 µM (inactive). Further, the GI50 with NCI/ADR-RES is 26.8 µM (inactive); in the assay with A498 it was 43.3 µM (inactive).

In the case of `COc1cc(C2c3cc4c(cc3[C@@H](Nc3ccc([N+](=O)[O-])cc3)C3COC(=O)[C@H]23)OCO4)cc(OC)c1O` (some centres undefined), the GI50 with HCT-15 was 2.87 µM; with SN12C, 0.853 µM (active); in the assay on SF-268 it was 2.01 µM (inactive); in the assay on KM12, 2.56 µM (inactive); in the assay with SK-OV-3 it was 1.54 µM (inactive); in the assay with HCC 2998 it was 2.99 µM (inactive). Also, the GI50 with MDA-MB-435 was 6.11 µM (inactive); in the assay with HL-60, 0.263 µM (active); with IGROV-1, 4.72 µM (inactive); with DMS-273 it was 0.555 µM (active); in the assay on ACHN, 0.25 µM (active); in the assay with EKVX it was 3.37 µM (inactive). Besides, the GI50 in the assay with SNB-75 is 1.19 µM (inactive); in the assay with UACC-257, 4.65 µM (inactive); in the assay on MDA-N, 4.09 µM (inactive); in the assay on PC-3, 2.16 µM (inactive); in the assay on K562, 2.44 µM (inactive); in the assay on NCI/ADR-RES it was 3.39 µM (inactive). Further, in the assay on A498, the GI50 was 0.676 µM (active).
